US20130029983A1, “AMINOTHIENOPYRIDAZINE INHIBITORS OF TAU ASSEMBLY” (priority 2009, published 2013)
Like-named read-outs stand apart in the source and are kept apart here.

How the values were obtained:
K18PL tau [1] = biological target: T1, K18PL tau (Homo sapiens, UniProt P10636, P618L); test: K18PL tau centrifugation (sedimentation) assay, SDS-PAGE densitometry; assay type: biochemical; conditions: K18PL tau centrifugation assay
T1 construct: (K18PL; amino acids 244-369); made in house
Experimental: The determination of compound-induced effects on the amount of tau that remains soluble upon centrifugation, and EM visualization of tau species following incubation with test compounds, were as previously described (Crowe, A., Ballatore, C., Hyde, E., Trojanowski, J. Q., and Lee, V. M. Y. (2007) Biochemical and Biophysical Research Communications 358, 1-6).
(§1) The solubility of test compounds in the sodium acetate buffer used for subsequent fibrillization reactions was determined by turbidimetric measurements. Compounds were then evaluated in a heparin-induced tau assembly assay, in which the fibrillization of the truncated K18 tau fragment (comprised of four MT-binding repeats) bearing the P301L mutation (K18PL) found in FTDP-17, was monitored by thioflavine-T (ThT) binding and fluorescence (FIG. 3A). (Crowe, A.; et al., Identification of aminothienopyridazine inhibitors of tau assembly by quantitative high-throughput screening. Biochemistry 2009, 48, 7732-45.) The inhibitory activity of test compounds was then confirmed with an orthogonal sedimentation assay in which compound-treated fibrillizing mixtures were centrifuged and quantitation of K18PL tau in the soluble and insoluble fraction was performed by densitometric analyses of SDS-PAGE (FIG. 3B). […] Thus, the tau fibrillization assay was repeated in which both DMSO- and compound-treated mixtures were initially centrifuged for 30 min. prior to incubation (i.e., at time zero of the fibrillization reaction) to remove any pelletable material.

K18PL tau [2] = biological target: T1, K18PL tau; test: Heparin-induced K18PL tau fibrillization assay monitored by ThT fluorescence; assay type: biochemical; conditions: for inhibition at 80 µM / Tau ThT Assay % Inhib.: highest tested concentration (80 μM); for inhibition at 80 µM: read-out: Tau ThT Assay % Inhib.; for IC50 / Tau ThT Assay Log IC50: logarithm of IC50, K18PL tau ThT fluorescence inhibition; for IC50: read-out: Tau ThT Assay Log IC50 (converted)
Experimental: Tau fibril formation reactions were performed essentially as described (Crowe, A., Ballatore, C., Hyde, E., Trojanowski, J. Q., and Lee, V. M. Y. (2007) Biochemical and Biophysical Research Communications 358, 1-6). K18PL (2 μl of a 30 μM stock that also contained 0.24 μM Alexa Red-labeled K18PL) was dispensed into black 1536-well plates (Grenier) using a solenoid-based dispenser. Following transfer of 23 nL of test compound or DMSO vehicle by a pin tool from compound library plates, 2 μl/well of 40 μM heparin in reagent buffer was dispensed and the plate was centrifuged for 15 s at 1000 rpm in a table-top centrifuge. The fibrillization reaction proceeded for 6 hours at 37° C. in a humidified incubator (Kalypsys).
K18PL fibril formation was quantified with a ThT assay as previously described (Crowe, A., Ballatore, C., Hyde, E., Trojanowski, J. Q., and Lee, V. M. Y. (2007) Biochemical and Biophysical Research Communications 358, 1-6). Briefly, 1 μl/well of 62.5 μM ThT (Sigma) in 100 mM glycine, pH 8.5 (12.5 μM final concentration) was dispensed into 1536-well plates after completion of the fibrillization reaction and incubated at room temperature for 1 hour. Plates were read on an Envision fluorescence plate reader with an excitation of 450 nm and an emission setting of 510 nm.
Compound effects on tau assembly were determined for the ThT and FP assays using the formula 1−(Fcompound− FDMSO)/( Fcontrol− FDMSO), where Fcontrol denotes the median plate fluorescence values (ThT assay) or mP values (FP assay) of the non-fibrillizing K18 KD control wells, FDMSO denotes the median value of the DMSO control wells, and Fcompound denotes the compound well values. The resulting values were multiplied by 100 to obtain the percent inhibition of tau fibril formation.
as §1

Aβ(1-42) = biological target: T2, Aβ(1-42) (Homo sapiens, UniProt P05067); test: Aβ(1-42) fibrillization assay (ThT); assay type: biochemical; conditions: Table 3, highest tested concentration (80 μM); for inhibition at 80 µM: read-out: Aβ42 ThT Assay % Inhib.
T2 construct: Synthetic Aβ(1-42) peptide (rPeptide); purchased rPeptide
T2 sequence (P05067 672-713 limits assumed): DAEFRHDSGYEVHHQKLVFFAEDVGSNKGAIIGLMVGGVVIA

[3] = Table 3, NC = not calculated due to insufficient activity

T1 sequence (P10636 561-686 P618L): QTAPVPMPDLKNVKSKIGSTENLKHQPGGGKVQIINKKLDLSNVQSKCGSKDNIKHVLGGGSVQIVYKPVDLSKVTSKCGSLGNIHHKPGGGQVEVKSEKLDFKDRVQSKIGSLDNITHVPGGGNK

| Tau Cent. Assay % Soluble (K18PL tau [1]; Table 4) | Tau Cent. Assay % Soluble (K18PL tau [1]; Table 3) | inhibition at 80 µM (K18PL tau [2]; Table 3) | inhibition at 80 µM (Aβ(1-42)) | IC50 (K18PL tau [2]; [3]) | SMILES | further results |
| --- | --- | --- | --- | --- | --- | --- |
| 61% |  |  |  |  | CCOC(=O)c1nn(-c2ccc(NC)cc2)c(=O)c2c(N)scc12 [CNDR-51358, Ethyl 5-amino-3-(4-(methylamino)phenyl)-4-oxo-3,4-dihydrothieno[3,4-d]pyridazine-1-carboxylate] | inhibition at 80 µM (K18PL tau [2]; Table 4): 76%; IC50 (K18PL tau [2]; Table 4): 3.98 µM; melting point: 211 to 213 °C |
| 70% |  |  |  |  | CCOC(=O)c1nn(-c2ccc(N(C)C)cc2)c(=O)c2c(N)scc12 [CNDR-51359, Ethyl 5-amino-3-(4-(dimethylamino)phenyl)-4-oxo-3,4-dihydrothieno[3,4-d]pyridazine-1-carboxylate] | inhibition at 80 µM (K18PL tau [2]; Table 4): 68%; IC50 (K18PL tau [2]; Table 4): 3.16 µM; melting point: 211 to 213 °C |
|  |  |  |  |  | CCOC(=O)c1nn(-c2ccc(Br)cc2)c(=O)c2c(N)scc12 [CNDR-51386, Ethyl 5-amino-3-(4-bromophenyl)-4-oxo-3,4-dihydrothieno[3,4-d]pyridazine-1-carboxylate] | melting point: 198 to 200 °C |
| 58% |  |  |  |  | CCOC(=O)c1nn(-c2ccccc2C)c(=O)c2c(N)scc12 [CNDR-51424, Ethyl 5-amino-4-oxo-3-(o-tolyl)-3,4-dihydrothieno[3,4-d]pyridazine-1-carboxylate] | inhibition at 80 µM (K18PL tau [2]; Table 4): 82%; IC50 (K18PL tau [2]; Table 4): 1.26 µM |
| 61% |  |  |  |  | CCOC(=O)c1nn(-c2ccccc2Cl)c(=O)c2c(N)scc12 [CNDR-51425, Ethyl 5-amino-3-(2-chlorophenyl)-4-oxo-3,4-dihydrothieno[3,4-d]pyridazine-1-carboxylate] | inhibition at 80 µM (K18PL tau [2]; Table 4): 87%; IC50 (K18PL tau [2]; Table 4): 5.01 µM |
| 77% |  |  |  |  | Nc1scc2c(C(=O)NCCO)nn(-c3ccc(Cl)cc3)c(=O)c12 [CNDR-51433, 5-Amino-3-(4-chlorophenyl)-N-(2-hydroxyethyl)-4-oxo-3,4-dihydrothieno[3,4-d]pyridazine-1-carboxamide] | inhibition at 80 µM (K18PL tau [2]; Table 4): 82%; IC50 (K18PL tau [2]; Table 4): 3.98 µM |
| 56% |  |  |  |  | CCOC(=O)c1nn(-c2ccc(C)cc2C)c(=O)c2c(N)scc12 [CNDR-51434] | Tau ThT Assay % Inhib. (K18PL tau [2]; Table 4): 87%; Tau ThT Assay Log IC50 (K18PL tau [2]; Table 4): −5.7 |
| 65% |  |  |  |  | CCOC(=O)c1nn(-c2ccccc2-c2ccccc2)c(=O)c2c(N)scc12 [CNDR-51435, Ethyl 3-([1,1′-biphenyl]-2-yl)-5-amino-4-oxo-3,4-dihydrothieno[3,4-d]pyridazine-1-carboxylate] | inhibition at 80 µM (K18PL tau [2]; Table 4): 78%; IC50 (K18PL tau [2]; Table 4): 0.794 µM |
| 41% |  |  |  |  | CCOC(=O)c1nn(-c2ccccc2F)c(=O)c2c(N)scc12 [CNDR-51439, Ethyl 5-amino-3-(2-fluorophenyl)-4-oxo-3,4-dihydrothieno[3,4-d]pyridazine-1-carboxylate] | inhibition at 80 µM (K18PL tau [2]; Table 4): 48%; IC50 (K18PL tau [2]; Table 4): 0.794 µM |
| 59% |  |  |  |  | CCN(CC)C(=O)c1nn(-c2ccc(OC)cc2)c(=O)c2c(N)scc12 [CNDR-51443, 5-Amino-N,N-diethyl-3-(4-methoxyphenyl)-4-oxo-3,4-dihydrothieno[3,4-d]pyridazine-1-carboxamide] | inhibition at 80 µM (K18PL tau [2]; Table 4): 75%; IC50 (K18PL tau [2]; Table 4): 7.94 µM |
|  | 28% | 48% | 7% |  | CCOC(=O)c1nn(-c2ccc(C)c(C)c2)c(=O)c2c(N)scc12 [Compound 5c] |  |
|  | 23% | 29% | 4% |  | CCOC(=O)c1ccc(-n2nc(C(=O)OCC)c3csc(N)c3c2=O)cc1 [Compound 5e] |  |
|  | 4% | 35% | 21% |  | CCOC(=O)c1nn(-c2ccccc2)c(=O)c2c(N)sc(C)c12 [Compound 5f] |  |
|  | 12% | 29% | 6% |  | CCOC(=O)c1nn(-c2ccc(Cl)c(Cl)c2)c(=O)c2c(N)scc12 [Compound 5g] |  |
|  | 35% | 51% | 12% | 126 µM | CCOC(=O)c1nn(-c2ccc(C)cc2)c(=O)c2c(N)scc12 [Compound 5h] |  |
|  | 84% | 92% | 20% | 7.94 µM | Nc1scc2c(C(=O)O)nn(-c3ccccc3)c(=O)c12 [Compound 6a] |  |
|  | 95% | 94% | 1% | 2.51 µM | COc1ccc(-n2nc(C(=O)O)c3csc(N)c3c2=O)cc1 [Compound 6b] |  |
|  | 54% | 80% | 27% | 7.94 µM | Nc1scc2c(C(=O)NCc3ccccc3)nn(-c3ccccc3)c(=O)c12 [Compound 8a] |  |
|  | 89% | 81% | 0% | 15.8 µM | Nc1scc2c(C(=O)N3CCOCC3)nn(-c3ccccc3)c(=O)c12 [Compound 8b] |  |
|  | 89% | 93% | 16% | 6.31 µM | NC(=O)c1nn(-c2ccccc2)c(=O)c2c(N)scc12 [Compound 8c] |  |
|  | 99% | 95% | 35% | 10 µM | CCN(CC)C(=O)c1nn(-c2ccc(OC)cc2)c(=O)c2c(N)scc12 [Compound 8d] |  |
|  | 0% |  |  |  | CCOC(=O)c1nn(-c2ccc(OC)cc2)c(=O)c2c(NC(=O)Cc3ccccc3)scc12 [Compound 9a] | Tau ThT Assay % Inhib. (K18PL tau [2]; Table 3): 31% |
|  | 11% | 27% |  |  | CCOC(=O)c1nn(-c2ccccc2)c(=O)c2c(NC(C)=O)scc12 [Compound 9b] |  |
|  | 2% | 8% | -7% |  | CCOC(=O)c1nn(-c2ccccc2)c(=O)c2c(NC(=O)c3ccccc3)scc12 [Compound 9c] |  |
|  | 86% | 92% | 21% | 6.31 µM | Nc1nn(-c2ccccc2)c(=O)c2c(N)scc12 [Compound 14] |  |
|  | 81% | 91% | 10% | 6.31 µM | Nc1scc2c(CO)nn(-c3ccccc3)c(=O)c12 [Compound 15] |  |
|  | 5% | 11% | -11% |  | CC(=O)Nc1sc(C)c2cnn(-c3ccccc3)c(=O)c12 [Compound 16] |  |
|  | 64% | 86% | 29% | 5.01 µM | COC(=O)c1nn(-c2ccc(F)cc2)c(=O)c2c(N)scc12 [Compound 18] |  |
|  | 41% | 66% |  | 10 µM | COC(=O)c1nn(-c2cccc(C(F)(F)F)c2)c(=O)c2c(N)scc12 [Compound 19] |  |

| SMILES | Tau Cent. Assay % Soluble (K18PL tau [1]; Table 4) | Tau Cent. Assay % Soluble (K18PL tau [1]; Table 3) | inhibition at 80 µM (K18PL tau [2]; Table 3) | inhibition at 80 µM (Aβ(1-42)) | IC50 (K18PL tau [2]; [3]) | further results |
| --- | --- | --- | --- | --- | --- | --- |
| CCOC(=O)c1nn(-c2ccccc2)c(=O)c2c(N)scc12 [Compound 5a] |  | 55% |  |  |  | Tau ThT Assay % Inhib. (K18PL tau [2]; Table 3): 80%; Tau ThT Assay Log IC50 (K18PL tau [2]; [3]): −5.2; Aβ42 ThT Assay % Inhib. (Aβ(1-42)): −1% |
